Results from US20070056052A1, “Methods of generating knock-out rodents” (priority 2001, published 2007).

Key:
[1] = system: mutated HEXA allele mRNA; conditions: increased from undetectable; cited from earlier work
[2] = system: NMD; assay: Inhibition of NMD with a protein synthesis inhibitor; conditions: preliminary
Text: The major drawbacks to using the RNA-based cDNA assay are that the gene-specific RNA may not be produced in an easily collectable tissue and mutant RNA may be lost to a great extent by NMD. […] NMD can be minimized by pre-treating collected cells, such as white blood cells, with a protein synthesis inhibitor before RNA collection. This approach has been successful for the yeast gap repair p53 assay (Flaman et al., 1995; Andreutti-Zaugg et al., 1997) and may be extrapolated to in vivo studies by the administration of a protein synthesis inhibitor to rat pups prior to tissue collection. […] The problem of a gene-specific RNA not being produced in tail tissue may be reduced by extending the range of biopsy tissues collected from viable rats, e.g., WBC, liver, skin, etc. In the future as it becomes possible to cryopreserve rat sperm from F1 male rats of mutagenized fathers, their sperm can be frozen and a wide variety of organ-specific RNAs could also be collected and stored, along with DNA from tails or spleens. DNAs or RNAs from a large number of rats could be screened and the appropriate frozen sperm used for the mutant rat recovery via in vitro fertilization and implantation. […]

[3] = system: NMD of hMSH2 and hMLH1; conditions: treatment of freshly drawn whole blood; cited from earlier work
[4] = system: CYP1A1 RNA mutant allele; conditions: cell line with a CYP1A1 mutation; cited from earlier work
[5] = even at high doses; cited from earlier work

Question: For `C[C@@H]1C[C@@H]([C@H](O)CC2CC(=O)NC(=O)C2)C(=O)[C@@H](C)C1` [cyclohexamide], which “mRNA levels of the mutated HEXA allele” value [1] is on record?
Answer: 40 % of the wild-type allele

Question: With `CC[C@H]1CN2CCc3cc(OC)c(OC)cc3[C@@H]2C[C@@H]1C[C@H]1NCCc2cc(OC)c(OC)cc21` [emetine] as the molecule, how does the “inhibition of NMD” value [2] read?
Answer: preliminary success in inhibiting NMD

Question: Which “NMD of hMSH2 and hMLH1” value [3] does the source give for `COc1ccc(C[C@H](N)C(=O)N[C@H]2[C@@H](O)[C@H](n3cnc4c(N(C)C)ncnc43)O[C@@H]2CO)cc1` [puromycin] here?
Answer: suppressed

Question: What about the “steady-state level of CYP1A1 RNA mutant allele” value [4] of the same molecule?
Answer: fully restored

Question: With Gentamicin as the molecule, how does the short-term toxicity profile [5] read?
Answer: very low short-term toxicity profile even at high doses
